# Results as given in patent publication US20220364184A1, “COMPOSITIONS AND METHODS FOR TREATMENT OF A POOR PROGNOSIS SUBTYPE OF COLORECTAL CANCER” (DANA-FARBER CANCER INSTITUTE, INC., priority 2019, published 2022).
# T1: B-cell lymphoma 9 (BCL9) (human, UniProt O00512 1-1426)
# T1 construct: Endogenous protein in nuclear lysates of human CRC cell lines (RKO, Colo320, SW620, LS174T, DLD-1)
# T1 sequence: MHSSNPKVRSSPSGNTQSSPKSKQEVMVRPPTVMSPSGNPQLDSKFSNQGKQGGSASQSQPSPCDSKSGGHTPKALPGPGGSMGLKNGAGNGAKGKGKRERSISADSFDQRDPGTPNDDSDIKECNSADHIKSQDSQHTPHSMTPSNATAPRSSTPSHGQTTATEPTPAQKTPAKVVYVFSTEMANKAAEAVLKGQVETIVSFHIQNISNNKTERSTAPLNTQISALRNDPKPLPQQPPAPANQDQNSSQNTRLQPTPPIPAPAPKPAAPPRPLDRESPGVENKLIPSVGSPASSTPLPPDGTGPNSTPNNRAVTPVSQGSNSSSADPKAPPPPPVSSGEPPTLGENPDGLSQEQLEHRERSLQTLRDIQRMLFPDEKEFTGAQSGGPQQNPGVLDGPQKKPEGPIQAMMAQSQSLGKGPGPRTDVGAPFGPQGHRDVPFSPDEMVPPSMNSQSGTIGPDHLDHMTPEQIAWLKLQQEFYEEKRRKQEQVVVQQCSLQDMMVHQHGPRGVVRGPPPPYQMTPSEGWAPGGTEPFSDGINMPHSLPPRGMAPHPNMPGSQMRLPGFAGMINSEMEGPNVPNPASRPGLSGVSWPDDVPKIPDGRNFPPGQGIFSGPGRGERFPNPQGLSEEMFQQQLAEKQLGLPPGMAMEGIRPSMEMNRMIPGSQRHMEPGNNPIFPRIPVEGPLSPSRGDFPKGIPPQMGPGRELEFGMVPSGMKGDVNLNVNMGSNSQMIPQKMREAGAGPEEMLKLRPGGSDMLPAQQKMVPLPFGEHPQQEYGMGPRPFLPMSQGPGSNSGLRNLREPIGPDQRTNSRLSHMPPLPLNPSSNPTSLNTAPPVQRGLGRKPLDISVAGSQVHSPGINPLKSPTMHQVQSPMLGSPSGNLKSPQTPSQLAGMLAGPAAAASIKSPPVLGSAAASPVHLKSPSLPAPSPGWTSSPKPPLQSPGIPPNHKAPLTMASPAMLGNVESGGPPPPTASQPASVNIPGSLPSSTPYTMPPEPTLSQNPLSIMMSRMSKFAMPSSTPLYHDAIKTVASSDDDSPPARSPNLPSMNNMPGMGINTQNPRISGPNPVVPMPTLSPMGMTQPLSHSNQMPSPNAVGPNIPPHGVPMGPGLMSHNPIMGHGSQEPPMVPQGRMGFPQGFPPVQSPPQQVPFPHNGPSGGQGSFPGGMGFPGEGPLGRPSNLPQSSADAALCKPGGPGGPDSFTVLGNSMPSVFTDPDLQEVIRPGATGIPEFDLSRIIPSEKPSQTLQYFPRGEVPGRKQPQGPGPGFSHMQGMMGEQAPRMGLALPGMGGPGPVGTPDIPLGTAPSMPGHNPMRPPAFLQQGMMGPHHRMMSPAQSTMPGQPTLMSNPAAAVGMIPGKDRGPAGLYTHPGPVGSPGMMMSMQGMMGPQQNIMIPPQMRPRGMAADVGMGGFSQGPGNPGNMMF
# Experiments:
# RKO cells [1] = test: Live-cell calcium imaging of spontaneous calcium transients (GCaMP5); type: cell-based, human; details: calcium wave spike library
# Protocol: 2 mg/ml neomycin was added to the cell culture medium 48 hrs after transfection to generate cell lines with stable GCaMP5 expression and removed one week prior to the initiation of experiment. Calcium transients were captured by live-cell imaging using a confocal microscope. Time lapse imaging was setup so that an image was captured every 0.5 s for 30 minutes, with an exposure time of 0.5 s. Calcium measurements were normalized to background fluorescence and the relative change in calcium (F(t)) over time was calculated by the formula: […]
# where F0 was defined as the average intensity of the 20% lowest grey values in a region of interest (ROI), F was defined as the normalized grey values of ROI in time point t. Global synchronicity was calculated by cross correlation method in FluoroSNNAP (seas.upenn.edu/˜molneuro/fluorosnnap.html).
# RKO cells [2] = test: Cell viability of wild-type and BCL9 knockout RKO cells after Poly I:C; type: cell-based, human
# BCL9 [3] = test: Immunofluorescence / FISH of BCL9 localization; type: cell-based, human; details: RKO cells
# Protocol: At various times after the scratch was made, cells were fixed with 4% paraformaldehyde for 15 minutes at room temperature. Immunofluorescence was subsequently used to identify the location of BCL9 (see immunofluorescence method section for more detail).
# Cells were cultured on coming Glass Coverslips (354085, BioCoat) contained within the wells of a 24-well plate for 24 hrs, and then fixed using 4% paraformaldehyde. Cells were washed three times with PBS, permeabilized with 0.5% Triton X-100 (Tris-HCl pH=7.6, 150 mM NaCl, 0.5% Triton X-100 (v/v), washing buffer) for 15 minutes at room temperature, and blocked with 5% BSA for 1 hour at room temperature. The cells were incubated overnight at 4 degrees with the following antibodies; anti-BCL9 (ab37305, Abcam®), NONO (TA504777, Origene®), ILF2 (PA5-18718, ThermoFisher®) or β-catenin (610154, BD Transduction Laboratories). The following day, cells were washed 3 times with PBS and incubated with fluorescently tagged anti-mouse (A11029, ThermoFisher®), rabbit (A11035, ThermoFisher®) or goat (A21447, ThermoFisher®) secondary antibodies for 1 hour at room temperature. Cells were washed 3 times with PBS and stained with DAPI (D9542, Millipore-Sigma®) for two mins. Cells were subsequently washed three times with PBS to remove any residual DAPI stain, and then imaged with an SD confocal microscope. The colocalization threshold is calculated by ImageJ2. Dotted staining area of BCL9 was calculated by the following step: confocal images were processed by High Frequency Signaling Removal to filter out the rapidly changing signal. This process removes the noise and non-dotted staining of BCL9. Then, the top 2% signaling areas were selected. High Frequency Signaling Removal and area size was calculated by ImageJ2. NEAT1 and fluorescence probe was purchased from Biosearch Technology (NEAT1, SMF-2036-1). IF combined FISH of BCL9/NEAT1 was performed as recommended by the supplier.
# BCL9 [4] = test: Immunoblotting of protein levels; type: cell-based, human; details: longer exposure, FIG. 3F and 16D
# Protocol: Following lysis, cells were incubated on ice for 10 minutes and centrifuged for 10 minutes at 4 degrees at 16000×g.
# [5] = tested on: RGS4, CACNA2D1, ADRB1 mRNA; test: mRNA expression by RNA-seq / qRT-PCR; type: cell-based, human; details: FIG. 3J
# Protocol: RNA was extracted from wild type and BCL9 knockout RKO cells with or without Poly I:C treatment (1 μg/ml) and subsequently purified using the TURBO DNA-free™ Kit (AM1907, invitrogen) to remove any residual DNA. An RNA library was prepared using the ribosome RNA removing method and sequenced with a 150 bp paired-end protocol in the Center for Cancer Computational Biology at the Dana Farber Cancer Institute (PRJNA554110). After quality control (QC) analysis was performed using fastQC, the first 10 bases were trimmed for each read. STAR software was used to map the readings to the human genome (hg19) and duplicates were removed using Picard. HTSeq was used to evaluate the gene expression levels by the count number for each gene and were subsequently annotated using the Ensemble database. Gene differential analysis was then applied to the expression profiling table using R package edgeR. For further analysis, the difference in exon usage between different conditions was calculated and R package DEXSeq was used to find differences between them.
# [6] = tested on: BCL9/β-catenin protein complex; test: Coimmunoprecipitation of BCL9/β-catenin complex; type: cell-based, human
# Protocol: To extract nuclear protein, cells were incubated with cytoplasmic lysis buffer (50 mM Tris-HCl pH=8.0, 20 mM NaCl, 2 mM EDTA, 0.5% Tween-20 containing protease/phosphatase Inhibitor, #5872, Cell Signaling®) on ice for 10 mins, centrifuged at 6000×g, and the precipitate collected. This step was repeated 3 times to remove at much cytoplasmic protein as possible. Subsequently, nuclear lysis buffer (50 mM Tris-HCl pH=7.4, 150 mM NaCl, 2 mM EDTA, 1% Triton X-100(v/v) containing protease/phosphatase inhibitor) was added to the precipitate, and sonication was used to lyse the sample before centrifugation at 16000×g for 15 minutes at 4 degrees. 1 mg of the nuclear lysate was blocked with 5% BSA for 1 hr at 4 degrees, before overnight incubation with anti-BCL9 (ab37305 Abcam®, 6109 generated in New England Biolabs), NONO (ab70335, Abcam®), SFPQ (ab38148), ILF2 (H00003608-D01, abnova) or β-catenin (9562L, Cell Signaling®) antibodies. Normal rabbit IgG (sc-3888, Santa Cruz®) was used as a negative control. The following day, Protein G and A DynaBeads (10003D, 10002D, ThermoFisher®) were added to the nuclear lysate at a ratio of 1:1 and rotated for an additional 4 hrs. […] In addition, pulled down protein samples were analyzed by silver staining; bands which existed in anti-BCL9 samples, but not in the anti-normal IgG groups, were cut and used for further MS analysis to validate previous results. […]
# DLD-1 cells = test: IF and Co-IP of BCL9 with paraspeckle proteins in DLD-1 cells; type: cell-based, human
# Protocol: To extract nuclear protein, cells were incubated with cytoplasmic lysis buffer (50 mM Tris-HCl pH=8.0, 20 mM NaCl, 2 mM EDTA, 0.5% Tween-20 containing protease/phosphatase Inhibitor, #5872, Cell Signaling®) on ice for 10 mins, centrifuged at 6000×g, and the precipitate collected. This step was repeated 3 times to remove at much cytoplasmic protein as possible. Subsequently, nuclear lysis buffer (50 mM Tris-HCl pH=7.4, 150 mM NaCl, 2 mM EDTA, 1% Triton X-100(v/v) containing protease/phosphatase inhibitor) was added to the precipitate, and sonication was used to lyse the sample before centrifugation at 16000×g for 15 minutes at 4 degrees. […] In addition, pulled down protein samples were analyzed by silver staining; bands which existed in anti-BCL9 samples, but not in the anti-normal IgG groups, were cut and used for further MS analysis to validate previous results. […]
# Cells were cultured on coming Glass Coverslips (354085, BioCoat) contained within the wells of a 24-well plate for 24 hrs, and then fixed using 4% paraformaldehyde. […] The colocalization threshold is calculated by ImageJ2. Dotted staining area of BCL9 was calculated by the following step: confocal images were processed by High Frequency Signaling Removal to filter out the rapidly changing signal. […]
# [7] = tested on: BCL9/paraspeckle proteins (NONO, SFPQ, ILF2); test: Coimmunoprecipitation of BCL9 with paraspeckle proteins; type: cell-based, human; details: RKO cells, FIG. 16K
# Protocol: This step was repeated 3 times to remove at much cytoplasmic protein as possible. Subsequently, nuclear lysis buffer (50 mM Tris-HCl pH=7.4, 150 mM NaCl, 2 mM EDTA, 1% Triton X-100(v/v) containing protease/phosphatase inhibitor) was added to the precipitate, and sonication was used to lyse the sample before centrifugation at 16000×g for 15 minutes at 4 degrees. […] The following day, Protein G and A DynaBeads (10003D, 10002D, ThermoFisher®) were added to the nuclear lysate at a ratio of 1:1 and rotated for an additional 4 hrs. The beads were washed 3 times with washing buffer (50 mM Tris-HCl pH=7.4, 200 mM NaCl, 2 mM EDTA, 1% Triton X-100(v/v)). The beads were then re-suspended with 2×LDS sample buffer and boiled for 10 mins. For Immunoblotting, the sample was electrophoresed using SDS-PAGE, transferred to nitrocellulose membrane and blocked using non-fat 5% milk.
# B-cell lymphoma 9 (BCL9) = target: T1, B-cell lymphoma 9 (BCL9); test: co-IP with anti-β-catenin antibody, untreated and poly I:C treated Colo320 cells
molecule,measurement,setting,value
poly I:C,length and amplitude of calcium transients,RKO cells [1]; BCL9 knockout cells,not
same,length and amplitude of calcium transients,RKO cells [1]; wild-type cells,enhanced
same,growth of cells,RKO cells [2]; BCL9 knockout RKO cells,not
same,growth of cells,RKO cells [2]; wild-type RKO cells,increased
same,partial co-localization between BCL9/IF and NEAT1/FISH signals,BCL9 [3]; FIG. 16I,increased
same,accumulation of BCL9 around the nucleus,"BCL9 [3]; after 6 hrs, FIG. 16C",accumulation of BCL9 around the nucleus was observed
same,BCL9 accumulation around the nucleolus,"BCL9 [3]; longer exposure, FIG. 3F",induced further BCL9 accumulation around the nucleolus
same,BCL9 and ILF2 protein levels,BCL9 [4],increased
same,transcription of the full-length RGS4 mRNA isoform,[5]; BCL9 knockout cells,not rescued
same,"expression of RGS4, CACNA2D1 and ADRB1","[5]; wild-type RKO cells, RNA-seq, Poly I:C 1 μg/ml",increased
same,amount of BCL9/β-catenin protein complex,"[6]; Colo320 cells, FIG. 16J",reduced
same,location and interaction of BCL9 with paraspeckle proteins,DLD-1 cells,unresponsive
"Wnt3A: Wnt ligand used to treat RKO cells (protein, UniProt P56704 19-352, looked up) Protein Wnt-3a: SYPIWWSLAVGPQYSSLGSQPILCASIPGLVPKQLRFCRNYVEIMPSVAEGIKIGIQECQHQFRGRRWNCTTVHDSLAIFGPVLDKATRESAFVHAIASAGVAFAVTRSCAEGTAAICGCSSRHQGSPGKGWKWGGCSEDIEFGGMVSREFADARENRPDARSAMNRHNNEAGRQAIASHMHLKCKCHGLSGSCEVKTCWWSQPDFRAIGDFLKDKYDSASEMVVEKHRESRGWVETLRPRYTYFKVPTERDLVYYEASPNFCEPNPETGSFGTRDRTCNVSSHGIDGCDLLCCGRGHNARAERRREKCRCVFHWCCYVSCQECTRVYDVHTCK",BCL9 binding to paraspeckle proteins,[7],did not affect
same,interaction between BCL9 and β-catenin,"[6]; RKO cells, FIG. 16K",increased
"β-catenin (other, UniProt P35222 2-781, looked up, Endogenous protein in cell lysates; co-IP with anti-β-catenin (9562L, Cell Signaling) or anti-BCL9 antibody; also called B-catenin) ATQADLMELDMAMEPDRKAAVSHWQQQSYLDSGIHSGATTTAPSLSGKGNPEEEDVDTSQVLYEWEQGFSQSFTQEQVADIDGQYAMTRAQRVRAAMFPETLDEGMQIPSTQFDAAHPTNVQRLAEPSQMLKHAVVNLINYQDDAELATRAIPELTKLLNDEDQVVVNKAAVMVHQLSKKEASRHAIMRSPQMVSAIVRTMQNTNDVETARCTAGTLHNLSHHREGLLAIFKSGGIPALVKMLGSPVDSVLFYAITTLHNLLLHQEGAKMAVRLAGGLQKMVALLNKTNVKFLAITTDCLQILAYGNQESKLIILASGGPQALVNIMRTYTYEKLLWTTSRVLKVLSVCSSNKPAIVEAGGMQALGLHLTDPSQRLVQNCLWTLRNLSDAATKQEGMEGLLGTLVQLLGSDDINVVTCAAGILSNLTCNNYKNKMMVCQVGGIEALVRTVLRAGDREDITEPAICALRHLTSRHQEAEMAQNAVRLHYGLPVVVKLLHPPSHWPLIKATVGLIRNLALCPANHAPLREQGAIPRLVQLLVRAHQDTQRRTSMGGTQQQFVEGVRMEEIVEGCTGALHILARDVHNRIVIRGLNTIPLFVQLLYSPIENIQRVAAGVLCELAQDKEAAEAIEAEGATAPLTELLHSRNEGVATYAAAVLFRMSEDKPQDYKKRLSVELTSSLFRTEPMAWNETADLGLDIGAQGEPLGYRQDDPSYRSFHSGGYGQDALGMDPMMEHEMGGHHPGADYPVDGLPDLGHAQDLMDGLPPGDSNQLAWFDTDL",binding result,B-cell lymphoma 9 (BCL9),binds
